This note sets out measurements from patent US20230183243A1, “HETEROARYL DERIVATIVES AND PHARMACEUTICAL COMPOSITION COMPRISING SAME AS ACTIVE INGREDIENT” (VORONOI INC., priority 2019, published 2023).

One may read the GI50 as the concentration giving 50% growth inhibition. A word on the IC50: it is the midpoint of a concentration-inhibition curve. Lower therefore signals greater potency.

One test concerns MDA-MB-231 cells. The test can be described thus: Inhibition of proliferation of triple-negative breast cancer cells, CellTiter-Glo. The test is classed as cell-based. The conditions noted are these: Homo sapiens, 120 h; MDA-MB-231, cultured for 5 days. In short, it runs like this: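 MDA-MB-231 cells pre-cultured 24 h (5% CO2, 37 °C), then exposed to compound for 5 days at 12 three-fold dilutions, final 10 μM to 0.05 nM. Viability read by CellTiter-Glo luminescence after 10 min at 37 °C; growth inhibition calculated relative to untreated solvent-control cells.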
A general note: Cellular ATP, detected with luciferase, serves as a proxy for viable cell number.

The subject of another test is SHP-77. As to the kind of experiment: Inhibition of proliferation of small cell lung cancer cells, CellTiter-Glo. The test is classed as cell-based. The conditions noted are these: Homo sapiens, SHP77, 120 h; SHP-77, cultured for 5 days. On the procedure: Specifically, the following test was performed to evaluate the inhibitory activity of the compound according to the present invention against the cell proliferation in the SCLC cells.
To check an inhibitory ability of cell growth in one SCLC cell line, a test was performed as follows. Cells were seeded in 180 μL of a culture broth at a density of 2,000 to 3,000 cells/well in a white clear bottom 96-well plate (Corning) according to the growth ability of each cell, and then cultured for 24 hours under conditions of 5% CO2 and 37° C. Thereafter, the compound was prepared by diluting a 10 mM stock solution three-fold with 100% DMSO at a total of 12 concentrations so that a peak concentration of the compound was in a range of 10 mM to 0.05 μM, and the diluted compound was then diluted in each cell culture medium so that a final concentration of the compound was in a range of 100 μM to 0.5 nM. 20 μL of a diluted solution diluted with a medium was added to the cell solution in which cells were seeded in the 96-well plate on the previous day so that a final concentration of the diluted solution was in a range of 10 μM to 0.05 nM. Each of the cells was cultured for 5 days. To check cell viability, a mixture provided in aCellTiter-Glo® Luminescent Cell Viability Assay Kit (Promega) was added to each of the cultured cell media, and cultured for another 10 minutes under a condition of 37° C. Then, a degree of luminescence (fluorescence) was measured. A degree of inhibition of the cell growth according to the treatment concentration of each of the compounds was calculated based on the fluorescence of the solvent control cells which were not treated with the compound. In this case, the concentration of each of the compounds inhibiting 50% of the cell growth was determined to be a GI50 (nM) value, and calculated using Prism (Version 7.01; GraphPad) software.

A further test has as its target T1, TTK (Homo sapiens, UniProt P33981).
T1 sequence (P33981 1-857): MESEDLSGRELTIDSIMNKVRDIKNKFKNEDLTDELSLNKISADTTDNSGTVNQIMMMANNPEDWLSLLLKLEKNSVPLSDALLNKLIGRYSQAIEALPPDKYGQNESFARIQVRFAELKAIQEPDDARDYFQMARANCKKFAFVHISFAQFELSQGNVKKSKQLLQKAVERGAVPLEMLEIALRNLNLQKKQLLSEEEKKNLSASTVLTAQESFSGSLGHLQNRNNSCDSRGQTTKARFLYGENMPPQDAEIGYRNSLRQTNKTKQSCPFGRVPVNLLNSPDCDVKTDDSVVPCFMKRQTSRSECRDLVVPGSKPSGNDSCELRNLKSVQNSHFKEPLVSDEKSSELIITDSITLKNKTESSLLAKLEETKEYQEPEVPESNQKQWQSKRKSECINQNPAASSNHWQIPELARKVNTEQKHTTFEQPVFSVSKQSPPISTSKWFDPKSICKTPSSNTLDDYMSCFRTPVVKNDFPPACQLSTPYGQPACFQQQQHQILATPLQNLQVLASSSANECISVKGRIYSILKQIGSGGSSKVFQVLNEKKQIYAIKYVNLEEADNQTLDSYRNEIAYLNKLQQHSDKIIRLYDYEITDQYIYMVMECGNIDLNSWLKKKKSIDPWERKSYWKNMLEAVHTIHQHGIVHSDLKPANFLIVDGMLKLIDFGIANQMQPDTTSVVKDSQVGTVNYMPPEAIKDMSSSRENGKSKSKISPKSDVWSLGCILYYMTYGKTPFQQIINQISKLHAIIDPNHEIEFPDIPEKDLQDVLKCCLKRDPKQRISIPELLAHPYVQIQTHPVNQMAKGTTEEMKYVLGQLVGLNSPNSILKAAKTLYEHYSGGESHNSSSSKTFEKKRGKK
As to the kind of experiment: TTK enzyme activity, ADP-Glo kinase assay. The conditions noted are these: purified human TTK, ATP 10 μM, 25° C., 2 hours. Format: biochemical. Set-up: purchased SignalChem T20-10G. In short, it runs like this: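 Purified human TTK (25 ng) incubated with 10 μM ATP and substrate (0.2 μg) for 2 h at 25 °C in Tris-HCl pH 7.4, MgCl2, BSA, DTT buffer. ADP formation read by ADP-Glo; inhibition calculated against untreated solvent control.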

A value given as a limit tells only on which side of the number the result lay.

For `CN(C)S(=O)(=O)CCNc1nc(Nc2ccc(-c3ccnn3C)c3c2OCCO3)nc2[nH]cc(C#N)c12` [Example 85, 2-((5-cyano-2-((8-(1-methyl-1H-pyrazol-5-yl)-2,3-dihydrobenzo[b][1,4]dioxin-5-yl)amino)-7H-pyrrolo[2,3-d]pyrimidin-4-yl)amino)-N,N-dimethylethane-1-sulfonamide], the values for the GI50 in the test with MDA-MB-231 cells and in the test on SHP-77 were 0.1 to 1 µM and under 0.1 µM, respectively. For the same molecule, the IC50 at TTK is under 0.05 µM.
As for `COc1cc(-c2ccnn2C)ccc1Nc1cc(NC2CCCC2)c2c(C#N)c[nH]c2n1` [Example 87, 4-(cyclopentylamino)-6-((2-methoxy-4-(l-methyl-1H-pyrazol-5-yl)phenyl)amino)-1H-pyrrolo[2,3-b] pyridine-3-carbonitrile], the GI50 in the test with MDA-MB-231 cells and with SHP-77 was under 0.1 µM in each case. The molecule also had a half-inhibitory concentration (IC50) on TTK of 0.05 to 0.2 µM.
As for `Cn1nccc1-c1ccc(Nc2cc(NC3CCCC3)c3c(C#N)c[nH]c3n2)c2c1OCCO2` [Example 88, 4-(cyclopentylamino)-6-((8-(1-methyl-1H-pyrazol-5-yl)-2,3-dihydrobenzo[b][1,4]dioxin-5-yl)amino)-1H-pyrrolo[2,3-b] pyridine-3-carbonitrile], the 50% growth inhibitory concentration (GI50) in the test with MDA-MB-231 cells and in the test with SHP-77 was under 0.1 µM each time. The molecule further gave an IC50 against TTK of 0.05 to 0.2 µM.
For `Cn1cc(-c2ccc(Nc3nc(NC4CCOCC4)c4c(C#N)c[nH]c4n3)c3c2OCCO3)cn1` [Example 89, 2-((8-(1-methyl-1H-pyrazol-4-yl)-2,3-dihydrobenzo[b][1,4]dioxin-5-yl)amino)-4-((tetrahydro-2H-pyran-4-yl)amino)-7H-pyrrolo[2,3-d] pyrimidine-5-carbonitrile], the GI50 in the test with MDA-MB-231 cells and in the test on SHP-77 was under 0.1 µM each time. The molecule further yielded an IC50 at TTK of under 0.05 µM.
On to `COc1cc(-c2nncn2C)ccc1Nc1nc(NC2CCOCC2)c2c(C#N)c[nH]c2n1` [Example 90, 2-((2-methoxy-4-(4-methy1-4H-1,2,4-triazol-3-yl)phenyl)amino)-4-((tetrahydro-2H-pyran-4-yl)amino)-7H-pyrrolo[2,3-d] pyrimidine-5-carbonitrile], for which the GI50 in the test with MDA-MB-231 cells and with SHP-77 was under 0.1 µM in each case. For the same molecule, the IC50 against TTK was under 0.05 µM.
Turning to `COc1cc(-c2c(C)noc2C)ccc1Nc1nc(NC2CCOCC2)c2c(C#N)c[nH]c2n1` [Example 91], the GI50 with MDA-MB-231 cells and in the test on SHP-77 was under 0.1 µM throughout. Further, the IC50 on TTK was under 0.05 µM.
`COc1cc(-c2cnn(C)c2)ccc1Nc1nc(NC2CCOCC2)c2c(C#N)c[nH]c2n1` [Example 92, 2-((2-methoxy-4-(1-methyl-1H-pyrazol-4-yl)phenyl)amino)-4-((tetrahydro-2H-pyran-4-yl)amino)-7H-pyrrolo[2,3-d] pyrimidine-5-carbonitrile]: the GI50 in the test on MDA-MB-231 cells and with SHP-77 was under 0.1 µM throughout. Besides, on TTK, the IC50 was under 0.05 µM.
With `COc1cc(-n2ccnc2C)ccc1Nc1nc(NC2CCOCC2)c2c(C#N)c[nH]c2n1` [Example 93, 2-((2-methoxy-4-(2-methyl-1H-imidazol-1-yl)phenyl)amino)-4-((tetrahydro-2H-pyran-4-yl)amino)-7H-pyrrolo[2,3-d] pyrimidine-5-carbonitrile], the GI50 with MDA-MB-231 cells and with SHP-77 was under 0.1 µM each time. The IC50 at TTK is under 0.05 µM.
As to `COCCNc1nc(Nc2ccc(-c3nncn3C)cc2OC)nc2[nH]cc(C#N)c12` [Example 95, 2-((2-methoxy-4-(4-methyl-4H-1,2,4-triazol-3-yl)phenyl)amino)-4-((2-methoxyethyl)amino)-7H-pyrrolo[2,3-d] pyrimidine-5-carbonitrile], the results for the GI50 with MDA-MB-231 cells and with SHP-77 were 0.1 to 1 µM and under 0.1 µM, respectively. This molecule also yielded an IC50 at TTK of under 0.05 µM.
Taken in the same sequence, the figures for `COCCNc1nc(Nc2ccc(-c3c(C)noc3C)cc2OC)nc2[nH]cc(C#N)c12` [Example 96] were under 0.1 µM, under 0.1 µM and under 0.05 µM.
For `COCCNc1nc(Nc2ccc(-c3cnn(C)c3)cc2OC)nc2[nH]cc(C#N)c12` [Example 97, 2-((2-methoxy-4-(1-methyl-1H-pyrazol-4-yl)phenyl)amino)-4-((2-methoxyethyl)amino)-7H-pyrrolo[2,3-d] pyrimidine-5-carbonitrile] the same measures were under 0.1 µM, under 0.1 µM and under 0.05 µM.
In the case of `COCCNc1nc(Nc2ccc(-n3ccnc3C)cc2OC)nc2[nH]cc(C#N)c12` [Example 98, 2-((2-methoxy-4-(2-methyl-1H-imidazol-1-yl)phenyl)amino)-4-((2-methoxyethyl)amino)-7H-pyrrolo[2,3-d] pyrimidine-5-carbonitrile], the GI50 in the test with MDA-MB-231 cells and in the test with SHP-77 was under 0.1 µM in each case. Also, the IC50 against TTK was under 0.05 µM.
In the case of `Cn1nccc1-c1ccc(Nc2nc(NC3CC3)c3c(C#N)c[nH]c3n2)c2c1OCCO2` [Example 99, 4-(cyclopropylamino)-2-((8-(1-methyl-1H-pyrazol-5-yl)-2,3-dihydrobenzo[b][1,4]dioxin-5-yl)amino)-7H-pyrrolo[2,3-d] pyrimidine-5-carbonitrile], the GI50 in the test with MDA-MB-231 cells and in the test on SHP-77 was under 0.1 µM throughout. The IC50 against TTK is under 0.05 µM.
As to `Cn1nccc1-c1ccc(Nc2nc(NCC3CCC3)c3c(C#N)c[nH]c3n2)c2c1OCCO2` [Example 100, 4-((cyclobutylmethyl)amino)-2-((8-(1-methyl-1H-pyrazol-5-yl)-2,3-dihydrobenzo[b][1,4]dioxin-5-yl)amino)-7H-pyrrolo[2,3-d] pyrimidine-5-carbonitrile], the GI50 with MDA-MB-231 cells and with SHP-77 was under 0.1 µM in each case. The molecule also gave an IC50 against TTK of 0.05 to 0.2 µM.
As to `COC[C@@H](C)Nc1nc(Nc2ccc(-c3ccnn3C)c3c2OCCO3)nc2[nH]cc(C#N)c12` [Example 101], the GI50 in the test on MDA-MB-231 cells and in the test with SHP-77 was under 0.1 µM in each case. Also, the 50% inhibitory concentration (IC50) at TTK is under 0.05 µM.
On to `COc1cc(-c2c(C)noc2C)c(F)cc1Nc1nc(NC2CCOCC2)c2c(C#N)c[nH]c2n1` [Example 102, 2-((4-(3,5-dimethylisoxazol-4-yl)-5-fluoro-2-methoxyphenyl)amino)-4-((tetrahydro-2H-pyran-4-yl)amino)-7H-pyrrolo[2,3-d] pyrimidine-5-carbonitrile], for which the GI50 with MDA-MB-231 cells and in the test on SHP-77 was 0.1 to 1 µM in each case. The same molecule displayed an IC50 against TTK of 0.2 to 1 µM.
With `COc1cc(-c2ccnn2C)c(F)cc1Nc1nc(NC2CCCC2)c2c(C#N)c[nH]c2n1` [Example 103, 4-(cyclopentylamino)-2-((5-fluoro-2-methoxy-4-(1-methyl-1H-pyrazol-5-yl)phenyl)amino)-7H-pyrrolo[2,3-d] pyrimidine-5-carbonitrile], the GI50 in the test with MDA-MB-231 cells and in the test on SHP-77 was 0.1 to 1 µM throughout. The molecule also registered an IC50 against TTK of 0.2 to 1 µM.
Consider `COc1cc(-c2c(C)noc2C)c(F)cc1Nc1nc(NC2CCCC2)c2c(C#N)c[nH]c2n1` [Example 104, 4-(cyclopentylamino)-2-((4-(3,5-dimethylisoxazol-4-yl)-5-fluoro-2-methoxyphenyl)amino)-7H-pyrrolo[2,3-d] pyrimidine-5-carbonitrile], for which the GI50 in the test on MDA-MB-231 cells and in the test on SHP-77 was 0.1 to 1 µM each time. The molecule further yielded an IC50 against TTK of 0.05 to 0.2 µM.
